In one experiment the target is Recombinant human DDR1 (Homo sapiens (Human), UniProt Q08345). Nature of the experiment: LanthaScreen Eu Kinase Binding Assay, DDR1. The following applies: DDR1 2.5 nM (aa440-876, GST tag), Kinase Tracer 178 5 nM; for IC50: read-out: DDR1 pIC50 (converted). A digest of the protocol: (§1)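 GST-tagged kinase domains (DDR1 aa440-876 at 2.5 nM; DDR2 aa427-855 at 1.75 nM) were preincubated 30 min at room temperature with compound in HEPES pH 7.3 buffer. Then 1 nM Eu-anti-GST plus Tracer 178 (5 nM DDR1, 10 nM DDR2) were added; after 60 min, TR-FRET gave IC50 by four-parameter fit, ≥2 replicates.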
Recombinant human DDR1, sequence (Q08345 other isoform, or with tags, fused parts or gaps): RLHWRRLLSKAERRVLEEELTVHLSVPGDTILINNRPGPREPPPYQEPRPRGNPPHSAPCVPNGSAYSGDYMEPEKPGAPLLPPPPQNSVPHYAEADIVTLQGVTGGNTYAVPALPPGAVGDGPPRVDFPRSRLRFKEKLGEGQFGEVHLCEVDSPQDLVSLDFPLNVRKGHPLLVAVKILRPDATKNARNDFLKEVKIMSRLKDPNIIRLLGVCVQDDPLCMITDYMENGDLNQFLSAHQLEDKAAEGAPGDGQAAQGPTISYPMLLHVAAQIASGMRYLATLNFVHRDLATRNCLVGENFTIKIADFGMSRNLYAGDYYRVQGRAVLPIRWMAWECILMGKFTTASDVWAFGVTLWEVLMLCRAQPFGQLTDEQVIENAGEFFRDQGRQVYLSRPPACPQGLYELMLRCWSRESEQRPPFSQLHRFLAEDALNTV

In the next experiment the target is Recombinant human DDR2 (Homo sapiens (Human), UniProt Q16832). As to the kind of experiment: LanthaScreen Eu Kinase Binding Assay, DDR2. The following applies: DDR2 1.75 nM (aa427-855, GST tag), Kinase Tracer 178 10 nM; for IC50: read-out: DDR2 pIC50 (converted). The gist of the method: as §1
Recombinant human DDR2, sequence (Q16832 427-855): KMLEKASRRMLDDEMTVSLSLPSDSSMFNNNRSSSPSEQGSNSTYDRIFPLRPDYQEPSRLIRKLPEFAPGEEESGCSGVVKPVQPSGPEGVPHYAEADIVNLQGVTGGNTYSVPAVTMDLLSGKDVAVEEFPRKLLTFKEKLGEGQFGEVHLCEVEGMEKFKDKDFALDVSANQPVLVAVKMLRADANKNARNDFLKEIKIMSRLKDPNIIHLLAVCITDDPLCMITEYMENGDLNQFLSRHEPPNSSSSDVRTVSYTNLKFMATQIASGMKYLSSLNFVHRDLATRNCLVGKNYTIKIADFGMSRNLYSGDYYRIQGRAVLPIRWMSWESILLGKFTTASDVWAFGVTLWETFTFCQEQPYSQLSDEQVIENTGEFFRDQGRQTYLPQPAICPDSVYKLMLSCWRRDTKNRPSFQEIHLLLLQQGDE

16 molecules from US20260069571A1, “DDR1 AND DDR2 INHIBITORS FOR THE TREATEMENT OF CANCER AND FIBROTIC DISEASES” (REDX PHARMA PLC, priority 2021, published 2026) can be followed below.

Structures are written as SMILES.

As for `Cn1ncc2cc(Nc3cccc4c3C(=O)N(CC(=O)N3CCO[C@H](C(F)(F)F)C3)C4)cnc21` [Example 54, 7-[(1-methylpyrazolo[3,4-b]pyridin-5-yl)amino]-2-[2-oxo-2-[(2S)-(trifluoromethyl)morpholin-4-yl]ethyl]isoindolin-1-one], the IC50 at Recombinant human DDR1 and at Recombinant human DDR2 was 100 to 1000 nM throughout.

`Cc1n[nH]c2cc(Nc3cccc4c3C(=O)N(CC(=O)N3CCOC[C@@H]3C(F)(F)F)C4)cnc12` [Example 71, 7-[(3-methyl-1H-pyrazolo[4,3-b]pyridin-6-yl)amino]-2-[2-oxo-2-[(3R)-(trifluoromethyl)morpholin-4-yl]ethyl]isoindolin-1-one]: the IC50 at Recombinant human DDR1 and on Recombinant human DDR2 was 10 to 100 nM in each case.

`O=C1c2c(cccc2Nc2ccc3[nH]ncc3n2)CN1CC(=O)N1CCC[C@H]1C(F)(F)F` [Example 84, 2-[2-oxo-2-[(2S)-(trifluoromethyl)pyrrolidin-1-yl]ethyl]-7-(1H-pyrazolo[4,3-b]pyridin-5-ylamino)isoindolin-1-one]: the IC50 on Recombinant human DDR1 was 10 to 100 nM; on Recombinant human DDR2 it was 100 to 1000 nM.

Regarding `Cc1cc(Nc2cccc3c2C(=O)N(CC(=O)NCC(F)(F)F)C3)cc2cn[nH]c12` [Example 11, 2-[7-[(7-methyl-1H-indazol-5-yl)amino]-1-oxo-isoindolin-2-yl]-N-(2,2,2-trifluoroethyl)acetamide], the “DDR1 pIC50” value on Recombinant human DDR1 is on record as “A (pIC50>8)”. In addition, the “DDR2 pIC50” value on Recombinant human DDR2 is given as “A (pIC50>8)”.

Consider `Cc1n[nH]c2cc(Nc3cccc4c3C(=O)N(CC(=O)NCC(F)(F)F)C4)cnc12` [Example 30, 2-[7-[(3-methyl-1H-pyrazolo[4,3-b]pyridin-6-yl)amino]-1-oxo-isoindolin-2-yl]-N-(2,2,2-trifluoroethyl)acetamide], for which the “DDR1 pIC50” value on Recombinant human DDR1 is “A (pIC50>8)”. Moreover, on Recombinant human DDR2, the IC50 was 10 to 100 nM.

For the molecule `C[C@H](NC(=O)CN1Cc2cccc(Nc3cnc4[nH]ncc4c3)c2C1=O)C(F)(F)F` [Example 73, 2-[1-oxo-7-(1H-pyrazolo[3,4-b]pyridin-5-ylamino)isoindolin-2-yl]-N-[(1S)-2,2,2-trifluoro-1-methyl-ethyl]acetamide], the values for the IC50 at Recombinant human DDR1 and on Recombinant human DDR2 were less than 10 nM and 10 to 100 nM, respectively.

Regarding `N#Cc1n[nH]c2ccc(Nc3cccc4c3C(=O)N(CC(=O)N3CCC[C@H]3C(F)(F)F)C4)cc12` [Example 82, 5-[[3-oxo-2-[2-oxo-2-[(2S)-(trifluoromethyl)pyrrolidin-1-yl]ethyl]isoindolin-4-yl]amino]-1H-indazole-3-carbonitrile], the IC50 at Recombinant human DDR1 is 10 to 100 nM; at Recombinant human DDR2 it was not below 1000 nM.

`Cn1ncc2cc(Nc3cccc4c3C(=O)N(CC(=O)NC3CC3(F)F)C4)ccc21` (centres unmarked) [Example 24, N-(2,2-difluorocyclopropyl)-2-[7-[(1-methylindazol-5-yl)amino]-1-oxo-isoindolin-2-yl]acetamide]: the “DDR1 pIC50” value on Recombinant human DDR1 was “A (pIC50>8)”. In addition, the IC50 at Recombinant human DDR2 was 10 to 100 nM.

With `Cn1ncc2cc(Nc3cccc4c3C(=O)N(CC(=O)N3CCOCC3C(F)(F)F)C4)ccc21` (centres unmarked) [Example 31, 7-[(1-methylindazol-5-yl)amino]-2-[2-oxo-2-[3-(trifluoromethyl)morpholin-4-yl]ethyl]isoindolin-1-one], the “DDR1 pIC50” value at Recombinant human DDR1 is “A (pIC50>8)”. Moreover, the IC50 on Recombinant human DDR2 is 10 to 100 nM.

Consider `Cc1n[nH]c2cc(Nc3cccc4c3C(=O)N(CC(=O)Nc3cnoc3)C4)ccc12` [Example 40, N-isoxazol-4-yl-2-[7-[(3-methyl-1H-indazol-6-yl)amino]-1-oxo-isoindolin-2-yl]acetamide], for which the “DDR1 pIC50” value at Recombinant human DDR1 is on record as “A (pIC50>8)”. On Recombinant human DDR2, the “DDR2 pIC50” value was “A (pIC50>8)”.

Regarding `CN(CC(F)(F)F)C(=O)CN1Cc2cccc(Nc3cnc4[nH]ncc4c3)c2C1=O` [Example 76, N-methyl-2-[1-oxo-7-(1H-pyrazolo[3,4-b]pyridin-5-ylamino)isoindolin-2-yl]-N-(2,2,2-trifluoroethyl)acetamide], the IC50 on Recombinant human DDR1 and on Recombinant human DDR2 was 10 to 100 nM throughout.

As to `Cc1n[nH]c2cc(Nc3cccc4c3C(=O)N(CC(=O)N(C)CC(F)(F)F)C4)ccc12` [Example 46, N-methyl-2-[7-[(3-methyl-1H-indazol-6-yl)amino]-1-oxo-isoindolin-2-yl]-N-(2,2,2-trifluoroethyl)acetamide], the “DDR1 pIC50” value on Recombinant human DDR1 is “A (pIC50>8)”. The “DDR2 pIC50” value on Recombinant human DDR2 is recorded as “A (pIC50>8)”.

For the molecule `Cn1ncc2cc(Nc3cccc4c3C(=O)N(CC(=O)N3CCC3C(F)(F)F)C4)ccc21` (centres unmarked) [Example 50, 7-[(1-methylindazol-5-yl)amino]-2-[2-oxo-2-[2-(trifluoromethyl)azetidin-1-yl]ethyl]isoindolin-1-one], on Recombinant human DDR1, the “DDR1 pIC50” value is reported as “A (pIC50>8)”. At Recombinant human DDR2, the “DDR2 pIC50” value is given as “A (pIC50>8)”.

Consider `CN(c1ccc2c(cnn2C)c1)c1cccc2c1C(=O)N(CC(=O)NCC(F)(F)F)C2` [Example 8, 2-[7-[methyl-(1-methylindazol-5-yl)amino]-1-oxo-isoindolin-2-yl]-N-(2,2,2-trifluoroethyl)acetamide], for which the IC50 on Recombinant human DDR1 and on Recombinant human DDR2 was 10 to 100 nM in each case.

With `Cn1ncc2cc(Nc3cccc4c3C(=O)N(CC(=O)NCC(F)(F)F)C4)cc(F)c21` [Example 93, 2-[7-[(7-fluoro-1-methyl-indazol-5-yl)amino]-1-oxo-isoindolin-2-yl]-N-(2,2,2-trifluoroethyl)acetamide], the “DDR1 pIC50” value at Recombinant human DDR1 is “A (pIC50>8)”. Besides, at Recombinant human DDR2, the IC50 was 10 to 100 nM.

For `Cc1n[nH]c2cc(Nc3cccc4c3C(=O)N(CC(=O)NCC(F)(F)F)C4)cc(F)c12` [Example 62, 2-[7-[(4-fluoro-3-methyl-1H-indazol-6-yl)amino]-1-oxo-isoindolin-2-yl]-N-(2,2,2-trifluoroethyl)acetamide], the “DDR1 pIC50” value at Recombinant human DDR1 is listed as “A (pIC50>8)”. Besides, on Recombinant human DDR2, the “DDR2 pIC50” value is recorded as “A (pIC50>8)”.
